Measurements as given in US20100152128A1, “Antiviral Agents” (priority 2007, published 2010).
Where two headings read alike, the source gives them in different places.

Test system: subgenomic HCV Replicon in HuH-7 cells
Assay: Assay for inhibition of HCV RNA replication (replicon, in situ ribonuclease protection SPA)
Type: cell-based, Hepatitis C Virus
[1] = Hepatitis C virus, HuH-7 hepatoma cells containing a subgenomic HCV Replicon, inhibition of HCV RNA replication, read-out: EC50
[2] = HuH-7 hepatoma cells containing a subgenomic HCV Replicon, inhibition of HCV RNA replication, read-out: EC50

Row | Compound | EC50 [1] [µM] | also measured
1 | CCCC(CCC)COC(=O)[C@H](C)NP(=O)(O)OC[C@H]1O[C@@H](n2ccc(N)nc2=O)[C@](C)(O)[C@@H]1O [Example 2, 5′-O-[hydroxy[[(1S)-1-methyl-2-oxo-2-[(2-propylpentyl)oxy]ethyl]amino]phosphinyl]-2′-C-methylcytidine] | 6 | 
2 | C[C@H](NP(=O)(O)OC[C@H]1O[C@@H](n2ccc(N)nc2=O)[C@](C)(O)[C@@H]1O)C(=O)OC1CCCCCC1 [Example 4, 5′-O-[[[(1S)-2-(cycloheptyloxy)-1-methyl-2-oxoethyl]amino]hydroxyphosphinyl]-2′-C-methylcytidine] | 9.9 | 
3 | C[C@H](NP(=O)(O)OC[C@H]1O[C@@H](n2ccc(N)nc2=O)[C@](C)(O)[C@@H]1O)C(=O)OC1CCCCCCC1 [Example 5, 5′-O-[[[(1S)-2-(cyclooctyloxy)-1-methyl-2-oxoethyl]amino]hydroxyphosphinyl]-2′-C-methylcytidine] | 9.9 | 
4 | CCCC(CCC)c1noc([C@H](C)NP(=O)(O)OC[C@H]2O[C@@H](n3ccc(N)nc3=O)[C@](C)(O)[C@@H]2O)n1 [Example 8, [(3aR, 4aR, 6R, 6aR)-6-(4-amino-2-oxopyrimidin-1(2H)-yl)-3,4-dihydroxy-4-methyltetrahydrofuran-2-yl]methyl hydrogen{(1S)-1-[3-(1-propylbutyl)-1,2,4-oxadiazol-5-yl]ethyl}amidophosphate] |  | EC50 [2]: 5.4 µM
5 | CCCC(CCC)c1nnc([C@H](C)NP(=O)(O)OC[C@H]2O[C@@H](n3ccc(N)nc3=O)[C@](C)(O)[C@@H]2O)o1 [Example 9, 5-O-[hydroxy[[1-[5-(1-propylbutyl)-1,3,4-oxadiazol-2-yl]ethyl]amino]phosphinyl]-2′-C-methylcytidine] |  | EC50 (Hepatitis C virus, Huh-7): 10.6 µM
6 | CCCC(CCC)COC(=O)C(C)NP(=O)(O)OC[C@H]1O[C@@H](n2ccc3c(N)ncnc32)[C@](C)(O)[C@@H]1O (stereo partly shown) [Example 10, 5′-O-[hydroxyl[[1-methyl-2-oxo-2-[(propylpentyl)oxy]ethyl]amino]phosphinyl]-2′-C-methyl-7-deaza adenosine] |  | EC50 [2]: 1.1 µM
7 | CCCC(CCC)C(=O)OCCNP(=O)(O)OC[C@H]1O[C@@H](n2ccc3c(N)ncnc32)[C@](C)(O)[C@@H]1O [Example 11, 5′-O-[hydroxyl[[2-[(1-oxo-2-propylpentyl)oxy]ethyl]amino]phosphinyl]-2′-C-methyl-7-deaza adenosine] | 0.7 | 
